What is called IC50 is the midpoint of a concentration-inhibition curve.

For 35 molecules, IC50 results are on record in ChEMBL document CHEMBL3124895, “Fragment-based discovery of potent inhibitors of the anti-apoptotic MCL-1 protein” (Bioorg Med Chem Lett, 2014).

Chain of Induced myeloid leukemia cell differentiation protein Mcl-1 (Q07820 whole entry): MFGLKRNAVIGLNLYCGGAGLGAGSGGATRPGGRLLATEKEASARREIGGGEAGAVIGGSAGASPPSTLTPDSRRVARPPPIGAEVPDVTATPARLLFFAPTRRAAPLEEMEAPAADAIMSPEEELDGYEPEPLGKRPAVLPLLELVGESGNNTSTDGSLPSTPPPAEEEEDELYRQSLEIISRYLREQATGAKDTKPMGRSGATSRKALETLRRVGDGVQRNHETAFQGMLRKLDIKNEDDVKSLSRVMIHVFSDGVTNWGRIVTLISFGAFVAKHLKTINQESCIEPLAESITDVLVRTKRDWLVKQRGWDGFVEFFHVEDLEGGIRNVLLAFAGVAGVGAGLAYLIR

The assay concerns the target Induced myeloid leukemia cell differentiation protein Mcl-1 (Homo sapiens, UniProt Q07820). The assay is described as follows: Inhibition of human recombinant MCL-1 (174 to 236) expressed in Escherichia coli BL21(DE3) using 6FAM-GELEVEFATQLRRFGDKLN as substrate after 15 mins by fluorescence polarization Assay.
`O=C(O)c1cc(-c2ccccc2)ccc1O`: the 50% inhibitory concentration (IC50) turned out to be 34000 nM.
Next, `Nc1cccc(-c2ccc(O)c(C(=O)O)c2)c1`: 190000 nM; `C=Cc1ccc(C(=O)OCC)c(NS(=O)(=O)c2ccccc2)c1`: 3400 nM; `Cc1ccc(-c2ccc(C(=O)O)c(NS(=O)(=O)c3ccc(Oc4ccccc4)cc3)c2)c2ccccc12`: 500 nM.
Turning to `CCCCCc1ccc(S(=O)(=O)Nc2cc(-c3ccc(C)c4ccccc34)ccc2C(=O)O)cc1`, the IC50 came to 300 nM.
Next, `Cc1ccc(-c2ccc(C(=O)O)c(NS(=O)(=O)c3cccc(N4CCOCC4)c3)c2)c2ccccc12`: 200 nM; `Cc1ccc(-c2ccc(C(=O)O)c(NS(=O)(=O)c3ccc(NC(=O)NCC(C)C)cc3)c2)c2ccccc12`: 150 nM.
Take `Cc1ccc(-c2ccc(C(=O)O)c(NS(=O)(=O)c3ccc(N4CCOCC4)cc3)c2)c2ccccc12`: the half-inhibitory concentration (IC50) worked out at 110 nM.
The result for `Cc1ccc(-c2ccc(C(=O)O)c(NS(=O)(=O)c3ccc(C(=O)N(C)C)cc3)c2)c2ccccc12` reads 80 nM; that for `Cc1ccc(-c2ccc(C(=O)O)c(NS(=O)(=O)c3ccc(OCCCN4CCOCC4)cc3)c2)c2ccccc12`, 60 nM.
As for `Cc1ccc(-c2ccc(C(=O)O)c(NS(=O)(=O)c3ccc(OCCn4cccn4)cc3)c2)c2ccccc12`, the IC50 amounted to 30 nM.
On to `Cc1ccc(-c2ccc(O)c(C(=O)O)c2)cc1`, for which the concentration for half-maximal inhibition (IC50) came out at 73000 nM.
The result for `CS(=O)(=O)Nc1ccccc1-c1ccc(O)c(C(=O)O)c1` reads 45000 nM; that for `O=C(O)c1cc(-c2cccc3ccccc23)ccc1O`, 31000 nM.
The result for `O=C(O)c1cc(-c2ccc3ncccc3c2)ccc1O` reads 22000 nM.
The result for `Cc1ccccc1-c1ccc(O)c(C(=O)O)c1` reads 22000 nM; that for `Cc1ccc(-c2ccc(O)c(C(=O)O)c2)cc1C`, 6200 nM.
On to `CCCc1ccc(-c2ccc(O)c(C(=O)O)c2)cc1`, for which the 50% inhibitory concentration (IC50) was found to be 3300 nM.
The result for `O=C(O)c1cc(-c2ccc(OCc3ccccc3)cc2)ccc1O` reads 2200 nM.
The result for `CCCCOc1ccc(F)c(-c2ccc(O)c(C(=O)O)c2)c1` reads 1100 nM.
Next, `Cc1ccc(S(=O)(=O)Nc2ccccc2-c2ccc(O)c(C(=O)O)c2)cc1`: more than 25000 nM; `CC(C)(C)OCc1ccccc1-c1ccc(O)c(C(=O)O)c1`: more than 25000 nM; `O=C(O)c1cc(-c2ccccc2OCc2ccccc2)ccc1O`: 7200 nM.
As for `O=C(O)c1cc(-c2ccccc2OCc2ccccc2Cl)ccc1O`, the IC50 was determined as 780 nM.
On to `O=C(O)c1cc(-c2ccccc2COc2cccc(C(F)(F)F)c2)ccc1O`, for which the IC50 is 670 nM.
On to `O=C(O)c1cc(-c2ccccc2COc2cccc3ccccc23)ccc1O`, for which the IC50 amounted to 570 nM.
Consider `O=C(O)c1ccc(-c2cccc3ncccc23)cc1NS(=O)(=O)c1ccccc1`, for which the half-maximal inhibitory concentration (IC50) was 37000 nM.
Next, `Cc1ccc(-c2ccc(C(=O)O)c(NS(=O)(=O)c3ccccc3)c2)cc1`: 4900 nM.
On to `Cc1cccc(-c2ccc(C(=O)O)c(NS(=O)(=O)c3ccccc3)c2)c1`, for which the IC50 worked out at 1800 nM.
Next, `O=C(O)c1ccc(-c2cccc3ccccc23)cc1NS(=O)(=O)c1ccccc1`: 1000 nM; `Cc1ccc(-c2ccc(C(=O)O)c(NS(=O)(=O)c3ccccc3)c2)c2ccccc12`: 400 nM.
`CCC(C)c1ccc(S(=O)(=O)Nc2cc(-c3ccc(C)c4ccccc34)ccc2C(=O)O)cc1` (stereo not given): the concentration for half-maximal inhibition (IC50) worked out at 1200 nM.
Next, `O=C1CC(c2cccc(C(F)(F)F)c2)=NN1`: 70000 nM; `Oc1nc2c(ccc3ccccc32)o1`: 130000 nM.
The result for `CN(C)c1cccc2ccc(O)cc12` reads 280000 nM.
